Source: the supplement of paper PMC10627819

Key:
B. subtilis 168 [1] = experiment: fitness (endpoint OD595 vs no drug) (fraction); higher = more growth
Summary of the method: (§1)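 Volumes were 30 µl per well, or 55 µl for S. pneumoniae, in 384-well plates inoculated at OD595 0.01. Media were TSB, LB Lennox or CY at 37 °C, and OD595 was read every 30 min for 14 h with first-reading background subtraction. Fitness is the ratio of optical density at stationary-phase entry to the robust mean of no-drug controls. That ratio is capped at 1.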

S. aureus DSM 20231 [2] = experiment: as above
Summary of the method: as §1

S. aureus Newman [3] = experiment: as above
Summary of the method: as §1

S. pneumoniae D39V [4] = experiment: as above
Summary of the method: as §1

B. subtilis 168 [5] = experiment: Bliss interaction score (quartile over a dose matrix) (fitness difference); higher = more antagonism (negative = synergy)
Summary of the method: (§2)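 The Bliss score is observed minus expected fitness, where expected fitness is the product of the single-drug fitness values inferred from the combination data. Fitness is the OD595 at the onset of stationary phase over the plate's robust no-drug mean, capped at 1. Scores are summarised by quartiles over technical, biological and donor/recipient replicates.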

S. aureus DSM 20231 [6] = experiment: as above
Summary of the method: as §2

S. aureus Newman [7] = experiment: as above
Summary of the method: as §2

S. pneumoniae D39V [8] = experiment: as above
Summary of the method: as §2
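Throughout, for Bliss interaction score (quartile over a dose matrix): first quartile when negative (synergy) and third quartile when positive (antagonism).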

Cc1ncc([N+](=O)[O-])n1CCO [Metronidazole] + CC1=C\[C@@H](O)CC(=O)Cc2nc(co2)C(=O)N2CCC=C2C(=O)O[C@H](C(C)C)[C@H](C)/C=C/C(=O)NC\C=C\1 [Virginiamycin M1]
Settings | fitness
B. subtilis 168 [1], first compound 0.625 µg/mL, partner 0.0625 µg/mL | 0.995
B. subtilis 168 [1], first compound 0.625 µg/mL, partner 0.125 µg/mL | 0.946
B. subtilis 168 [1], first compound 0.625 µg/mL, partner 0.25 µg/mL | 0.956
B. subtilis 168 [1], first compound 1.25 µg/mL, partner 0.0625 µg/mL | 0.951
B. subtilis 168 [1], first compound 1.25 µg/mL, partner 0.125 µg/mL | 0.938
B. subtilis 168 [1], first compound 1.25 µg/mL, partner 0.25 µg/mL | ≥ 1
B. subtilis 168 [1], first compound 2.5 µg/mL, partner 0.0625 µg/mL | 0.929
B. subtilis 168 [1], first compound 2.5 µg/mL, partner 0.125 µg/mL | 0.944
B. subtilis 168 [1], first compound 2.5 µg/mL, partner 0.25 µg/mL | 0.96
S. aureus DSM 20231 [2], first compound 0.625 µg/mL, partner 0.0625 µg/mL | ≥ 1
S. aureus DSM 20231 [2], first compound 0.625 µg/mL, partner 0.125 µg/mL | ≥ 1
S. aureus DSM 20231 [2], first compound 0.625 µg/mL, partner 0.25 µg/mL | ≥ 1
S. aureus DSM 20231 [2], first compound 1.25 µg/mL, partner 0.0625 µg/mL | ≥ 1
S. aureus DSM 20231 [2], first compound 1.25 µg/mL, partner 0.125 µg/mL | ≥ 1
S. aureus DSM 20231 [2], first compound 1.25 µg/mL, partner 0.25 µg/mL | ≥ 1
S. aureus DSM 20231 [2], first compound 2.5 µg/mL, partner 0.0625 µg/mL | ≥ 1
S. aureus DSM 20231 [2], first compound 2.5 µg/mL, partner 0.125 µg/mL | ≥ 1
S. aureus DSM 20231 [2], first compound 2.5 µg/mL, partner 0.25 µg/mL | ≥ 1
S. aureus Newman [3], first compound 0.625 µg/mL, partner 0.0625 µg/mL | 0.97
S. aureus Newman [3], first compound 0.625 µg/mL, partner 0.125 µg/mL | 0.973
S. aureus Newman [3], first compound 0.625 µg/mL, partner 0.25 µg/mL | 0.975
S. aureus Newman [3], first compound 1.25 µg/mL, partner 0.0625 µg/mL | 0.984
S. aureus Newman [3], first compound 1.25 µg/mL, partner 0.125 µg/mL | 0.993
S. aureus Newman [3], first compound 1.25 µg/mL, partner 0.25 µg/mL | ≥ 1
S. aureus Newman [3], first compound 2.5 µg/mL, partner 0.0625 µg/mL | 0.992
S. aureus Newman [3], first compound 2.5 µg/mL, partner 0.125 µg/mL | ≥ 1
S. aureus Newman [3], first compound 2.5 µg/mL, partner 0.25 µg/mL | 0.991
S. pneumoniae D39V [4], first compound 1.073 µg/mL, partner 0.5 µg/mL | ≥ 1
S. pneumoniae D39V [4], first compound 1.073 µg/mL, partner 1 µg/mL | ≥ 1
S. pneumoniae D39V [4], first compound 1.073 µg/mL, partner 2 µg/mL | ≥ 1
S. pneumoniae D39V [4], first compound 1.25 µg/mL, partner 2 µg/mL | 0.944
S. pneumoniae D39V [4], first compound 2.145 µg/mL, partner 0.5 µg/mL | 0.912
S. pneumoniae D39V [4], first compound 2.145 µg/mL, partner 1 µg/mL | 0.945
S. pneumoniae D39V [4], first compound 2.145 µg/mL, partner 2 µg/mL | 0.877
S. pneumoniae D39V [4], first compound 2.5 µg/mL, partner 2 µg/mL | 0.94
S. pneumoniae D39V [4], first compound 4.29 µg/mL, partner 0.5 µg/mL | ≥ 1
S. pneumoniae D39V [4], first compound 4.29 µg/mL, partner 1 µg/mL | 0.994
S. pneumoniae D39V [4], first compound 4.29 µg/mL, partner 2 µg/mL | ≥ 1
S. pneumoniae D39V [4], first compound 5 µg/mL, partner 2 µg/mL | 0.946

fitness, one replicate
Settings | first compound 0.625 µg/mL | first compound 1.25 µg/mL | first compound 2.5 µg/mL | first compound 5 µg/mL
S. aureus DSM 20231 [2], partner 0.5 µg/mL | 0.825 | 0.842 | 0.978 | –
S. aureus DSM 20231 [2], partner 1 µg/mL | 0.725 | 0.827 | 0.908 | –
S. aureus Newman [3], partner 0.5 µg/mL | 0.902 | 0.899 | 0.89 | –
S. aureus Newman [3], partner 1 µg/mL | 0.912 | 0.922 | ≥ 1 | –
S. aureus Newman [3], partner 2 µg/mL | 0.919 | 0.919 | 0.949 | –
S. pneumoniae D39V [4], partner 0.15 µg/mL | – | ≥ 1 | ≥ 1 | ≥ 1
S. pneumoniae D39V [4], partner 0.3 µg/mL | – | ≥ 1 | 0.987 | 0.96
S. pneumoniae D39V [4], partner 0.5 µg/mL | – | ≥ 1 | 0.973 | ≥ 1
S. pneumoniae D39V [4], partner 1 µg/mL | – | ≥ 1 | ≥ 1 | ≥ 1

Settings | Bliss interaction score
B. subtilis 168 [5] | -0.0294
S. aureus DSM 20231 [6] | 0.0516
S. aureus Newman [7] | 0.0634
S. pneumoniae D39V [8] | 0.0226

COc1ccc(C[C@H](N)C(=O)N[C@H]2[C@@H](O)[C@H](n3cnc4c(N(C)C)ncnc43)O[C@@H]2CO)cc1 [Puromycin] + CC1=C\[C@@H](O)CC(=O)Cc2nc(co2)C(=O)N2CCC=C2C(=O)O[C@H](C(C)C)[C@H](C)/C=C/C(=O)NC\C=C\1 [Virginiamycin M1]
Settings | fitness
B. subtilis 168 [1], first compound 0.39 µg/mL, partner 0.0625 µg/mL | 0.975
B. subtilis 168 [1], first compound 0.39 µg/mL, partner 0.125 µg/mL | 0.947
B. subtilis 168 [1], first compound 0.39 µg/mL, partner 0.25 µg/mL | ≥ 1
B. subtilis 168 [1], first compound 0.78 µg/mL, partner 0.0625 µg/mL | 0.94
B. subtilis 168 [1], first compound 0.78 µg/mL, partner 0.125 µg/mL | 0.908
B. subtilis 168 [1], first compound 0.78 µg/mL, partner 0.25 µg/mL | 0.963
B. subtilis 168 [1], first compound 1.56 µg/mL, partner 0.0625 µg/mL | 0.948
B. subtilis 168 [1], first compound 1.56 µg/mL, partner 0.125 µg/mL | 0.884
B. subtilis 168 [1], first compound 1.56 µg/mL, partner 0.25 µg/mL | 0.87
S. aureus DSM 20231 [2], first compound 0.39 µg/mL, partner 0.0625 µg/mL | 0.981
S. aureus DSM 20231 [2], first compound 0.39 µg/mL, partner 0.125 µg/mL | ≥ 1
S. aureus DSM 20231 [2], first compound 0.39 µg/mL, partner 0.25 µg/mL | 0.926
S. aureus DSM 20231 [2], first compound 0.78 µg/mL, partner 0.125 µg/mL | 0.807
S. aureus DSM 20231 [2], first compound 0.78 µg/mL, partner 0.25 µg/mL | 0.978
S. aureus DSM 20231 [2], first compound 1.56 µg/mL, partner 0.0625 µg/mL | 0.998
S. aureus DSM 20231 [2], first compound 1.56 µg/mL, partner 0.125 µg/mL | ≥ 1
S. aureus DSM 20231 [2], first compound 1.56 µg/mL, partner 0.25 µg/mL | 0.98
S. aureus Newman [3], first compound 0.39 µg/mL, partner 0.0625 µg/mL | 0.988
S. aureus Newman [3], first compound 0.39 µg/mL, partner 0.125 µg/mL | ≥ 1
S. aureus Newman [3], first compound 0.39 µg/mL, partner 0.25 µg/mL | 0.999
S. aureus Newman [3], first compound 0.78 µg/mL, partner 0.0625 µg/mL | 0.986
S. aureus Newman [3], first compound 0.78 µg/mL, partner 0.125 µg/mL | ≥ 1
S. aureus Newman [3], first compound 0.78 µg/mL, partner 0.25 µg/mL | 0.984
S. aureus Newman [3], first compound 1.56 µg/mL, partner 0.0625 µg/mL | 0.998
S. aureus Newman [3], first compound 1.56 µg/mL, partner 0.125 µg/mL | 0.977
S. aureus Newman [3], first compound 1.56 µg/mL, partner 0.25 µg/mL | 0.986
S. pneumoniae D39V [4], first compound 1 µg/mL, partner 0.5 µg/mL | 0.976
S. pneumoniae D39V [4], first compound 1 µg/mL, partner 1 µg/mL | 0.952
S. pneumoniae D39V [4], first compound 1 µg/mL, partner 2 µg/mL | 0.908
S. pneumoniae D39V [4], first compound 2 µg/mL, partner 0.5 µg/mL | 0.986
S. pneumoniae D39V [4], first compound 2 µg/mL, partner 1 µg/mL | 0.969
S. pneumoniae D39V [4], first compound 2 µg/mL, partner 2 µg/mL | 0.886
S. pneumoniae D39V [4], first compound 4 µg/mL, partner 0.5 µg/mL | 0.847
S. pneumoniae D39V [4], first compound 4 µg/mL, partner 1 µg/mL | 0.783
S. pneumoniae D39V [4], first compound 4 µg/mL, partner 2 µg/mL | 0.804

one replicate
Settings | fitness
S. aureus DSM 20231 [2], first compound 0.39 µg/mL, partner 0.5 µg/mL | 0.858
S. aureus DSM 20231 [2], first compound 0.39 µg/mL, partner 1 µg/mL | 0.798
S. aureus DSM 20231 [2], first compound 0.78 µg/mL, partner 0.5 µg/mL | 0.924
S. aureus DSM 20231 [2], first compound 0.78 µg/mL, partner 1 µg/mL | 0.917
S. aureus DSM 20231 [2], first compound 1.56 µg/mL, partner 0.5 µg/mL | 0.939
S. aureus DSM 20231 [2], first compound 1.56 µg/mL, partner 1 µg/mL | 0.941
S. aureus DSM 20231 [2], first compound 3.12 µg/mL, partner 0.0625 µg/mL | 0.99
S. aureus DSM 20231 [2], first compound 3.12 µg/mL, partner 0.125 µg/mL | 0.996
S. aureus DSM 20231 [2], first compound 3.12 µg/mL, partner 0.25 µg/mL | 0.931
S. aureus DSM 20231 [2], first compound 6.24 µg/mL, partner 0.0625 µg/mL | 0.67
S. aureus DSM 20231 [2], first compound 6.24 µg/mL, partner 0.125 µg/mL | 0.706
S. aureus DSM 20231 [2], first compound 6.24 µg/mL, partner 0.25 µg/mL | 0.851
S. aureus Newman [3], first compound 0.39 µg/mL, partner 0.5 µg/mL | 0.877
S. aureus Newman [3], first compound 0.39 µg/mL, partner 1 µg/mL | ≥ 1
S. aureus Newman [3], first compound 0.39 µg/mL, partner 2 µg/mL | 0.907
S. aureus Newman [3], first compound 0.78 µg/mL, partner 0.5 µg/mL | 0.948
S. aureus Newman [3], first compound 0.78 µg/mL, partner 1 µg/mL | 0.988
S. aureus Newman [3], first compound 0.78 µg/mL, partner 2 µg/mL | 0.87
S. aureus Newman [3], first compound 1.56 µg/mL, partner 0.5 µg/mL | 0.942
S. aureus Newman [3], first compound 1.56 µg/mL, partner 1 µg/mL | ≥ 1
S. aureus Newman [3], first compound 1.56 µg/mL, partner 2 µg/mL | 0.919
S. pneumoniae D39V [4], first compound 1 µg/mL, partner 0.15 µg/mL | ≥ 1
S. pneumoniae D39V [4], first compound 1 µg/mL, partner 0.3 µg/mL | ≥ 1
S. pneumoniae D39V [4], first compound 2 µg/mL, partner 0.15 µg/mL | ≥ 1
S. pneumoniae D39V [4], first compound 2 µg/mL, partner 0.3 µg/mL | 0.983
S. pneumoniae D39V [4], first compound 4 µg/mL, partner 0.15 µg/mL | 0.981
S. pneumoniae D39V [4], first compound 4 µg/mL, partner 0.3 µg/mL | 0.948

Settings | Bliss interaction score
B. subtilis 168 [5] | 0.0535
S. aureus DSM 20231 [6] | 0.0808
S. aureus Newman [7] | 0.0481
S. pneumoniae D39V [8] | 0.0811
